From ChEMBL document CHEMBL4052685, “Design, synthesis and tumor cell growth inhibitory activity of 3-nitro-2H-cheromene derivatives as histone deacetylaes inhibitors” (Bioorg Med Chem, 2017)

Legend:
K562 = assay: Antiproliferative activity against human K562 cells after 48 hrs by MTT assay; type: functional
A549 = assay: Antiproliferative activity against human A549 cells after 48 hrs by MTT assay; type: functional
MCF7 = assay: Antiproliferative activity against human MCF7 cells after 48 hrs by MTT assay; type: functional
PC-3 = assay: Antiproliferative activity against human PC3 cells after 48 hrs by MTT assay; type: functional
HeLa = assay: Antiproliferative activity against human HeLa cells after 48 hrs by MTT assay; type: functional
Histone deacetylase 2 [1] = biological target: T1, Histone deacetylase 2 (Homo sapiens, UniProt Q92769); details: at 10 µM
Description: Inhibition of HDAC2 (unknown origin) at 10 uM using Ac-Leu-GlyLys(Ac)-AMC as substrate preincubated for 10 mins followed by substrate addition measured after 30 mins by fluorescence analysis

Histone deacetylase 1 = Histone deacetylase 1 (Homo sapiens, UniProt Q13547); assay: Inhibition of HDAC1 (unknown origin) using Ac-Leu-GlyLys(Ac)-AMC as substrate preincubated for 10 mins followed by substrate addition measured after 30 mins by fluorescence analysis
Histone deacetylase 2 [2] = biological target: T1, Histone deacetylase 2; assay: Inhibition of HDAC2 (unknown origin) using Ac-Leu-GlyLys(Ac)-AMC as substrate preincubated for 10 mins followed by substrate addition measured after 30 mins by fluorescence analysis

Sequence of Histone deacetylase 1 (Q13547 whole entry): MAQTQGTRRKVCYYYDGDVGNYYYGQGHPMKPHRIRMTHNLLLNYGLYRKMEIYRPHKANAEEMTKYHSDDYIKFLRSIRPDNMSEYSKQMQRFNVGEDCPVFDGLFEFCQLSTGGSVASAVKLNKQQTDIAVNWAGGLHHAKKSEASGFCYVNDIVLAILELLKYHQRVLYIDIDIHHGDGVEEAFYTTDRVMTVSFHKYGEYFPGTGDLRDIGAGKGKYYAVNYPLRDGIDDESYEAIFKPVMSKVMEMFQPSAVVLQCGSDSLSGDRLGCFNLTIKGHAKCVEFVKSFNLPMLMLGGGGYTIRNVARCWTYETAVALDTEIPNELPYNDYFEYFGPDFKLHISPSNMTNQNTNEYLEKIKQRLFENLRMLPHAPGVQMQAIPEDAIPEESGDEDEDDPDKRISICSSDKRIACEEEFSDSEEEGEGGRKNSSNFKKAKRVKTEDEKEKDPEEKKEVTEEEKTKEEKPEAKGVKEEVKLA
T1 sequence (Q92769 whole entry): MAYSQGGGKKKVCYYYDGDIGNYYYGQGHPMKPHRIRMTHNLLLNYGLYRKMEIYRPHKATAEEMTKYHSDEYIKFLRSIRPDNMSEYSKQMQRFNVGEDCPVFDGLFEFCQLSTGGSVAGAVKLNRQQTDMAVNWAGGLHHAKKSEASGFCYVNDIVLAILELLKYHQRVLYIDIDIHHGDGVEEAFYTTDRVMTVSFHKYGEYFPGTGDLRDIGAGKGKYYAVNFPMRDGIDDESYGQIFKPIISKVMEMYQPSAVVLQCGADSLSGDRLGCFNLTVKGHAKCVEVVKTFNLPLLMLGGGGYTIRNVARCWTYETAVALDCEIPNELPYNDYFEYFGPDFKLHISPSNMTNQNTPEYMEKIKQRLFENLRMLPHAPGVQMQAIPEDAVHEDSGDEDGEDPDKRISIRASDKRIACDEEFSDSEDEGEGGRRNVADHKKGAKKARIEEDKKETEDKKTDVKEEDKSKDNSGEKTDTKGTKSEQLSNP

## CCOc1cc(NC(=O)CCCCC(=O)Nc2cc(-c3ccc(C)s3)ccc2N)cc2c1OCC([N+](=O)[O-])=C2
K562; Homo sapiens, K562, 48 h
  GI50: 2.94 µM
A549; Homo sapiens, A549, 48 h
  GI50: 13.8 µM
MCF7; Homo sapiens, MCF7, 48 h
  GI50: 7.91 µM
PC-3; Homo sapiens, PC-3, 48 h
  GI50: 13.5 µM
HeLa; Homo sapiens, HeLa, 48 h
  GI50: 18.4 µM
Histone deacetylase 2 [1]
  inhibition: 32%

## CCOc1cc(NC(=O)CCCCCC(=O)Nc2cc(-c3ccccc3)ccc2N)cc2c1OCC([N+](=O)[O-])=C2
K562; Homo sapiens, K562, 48 h
  GI50: 3.21 µM
A549; Homo sapiens, A549, 48 h
  GI50: 4.86 µM
MCF7; Homo sapiens, MCF7, 48 h
  GI50: 7.03 µM
PC-3; Homo sapiens, PC-3, 48 h
  GI50: 7.08 µM
HeLa; Homo sapiens, HeLa, 48 h
  GI50: 19.8 µM
Histone deacetylase 1
  IC50: 0.128 µM
Histone deacetylase 2 [2]
  IC50: 0.659 µM
Histone deacetylase 2 [1]
  inhibition: 81%

## CCOc1cc(NC(=O)CCCCC(=O)NCCc2ccccc2)cc2c1OCC([N+](=O)[O-])=C2
K562; Homo sapiens, K562, 48 h
  GI50: 2.9 µM
A549; Homo sapiens, A549, 48 h
  GI50: 6.42 µM
MCF7; Homo sapiens, MCF7, 48 h
  GI50: 2.82 µM
PC-3; Homo sapiens, PC-3, 48 h
  GI50: 6.46 µM
HeLa; Homo sapiens, HeLa, 48 h
  GI50: 9.33 µM
Histone deacetylase 2 [1]
  inhibition: 3%

## CCOc1cc(NC(=O)CCCCCCC(=O)Nc2ccccc2N)cc2c1OCC([N+](=O)[O-])=C2
K562; Homo sapiens, K562, 48 h
  GI50: 3.36 µM
A549; Homo sapiens, A549, 48 h
  GI50: 11.7 µM
MCF7; Homo sapiens, MCF7, 48 h
  GI50: 13.5 µM
PC-3; Homo sapiens, PC-3, 48 h
  GI50: 8.63 µM
HeLa; Homo sapiens, HeLa, 48 h
  GI50: > 20 µM
Histone deacetylase 1
  IC50: 0.232 µM
Histone deacetylase 2 [2]
  IC50: 0.439 µM
Histone deacetylase 2 [1]
  inhibition: 93%

## CCOc1cc(NC(=O)CCCCCC(=O)Nc2ccccc2N)cc2c1OCC([N+](=O)[O-])=C2
K562; Homo sapiens, K562, 48 h
  GI50: 3.96 µM
A549; Homo sapiens, A549, 48 h
  GI50: 12.2 µM
MCF7; Homo sapiens, MCF7, 48 h
  GI50: 19.4 µM
PC-3; Homo sapiens, PC-3, 48 h
  GI50: > 20 µM
HeLa; Homo sapiens, HeLa, 48 h
  GI50: 14.9 µM
Histone deacetylase 1
  IC50: 0.288 µM
Histone deacetylase 2 [2]
  IC50: 0.759 µM
Histone deacetylase 2 [1]
  inhibition: 96%

## CCOc1cc(NC(=O)CCCCCCC(=O)Nc2cc(-c3ccccc3)ccc2N)cc2c1OCC([N+](=O)[O-])=C2
K562; Homo sapiens, K562, 48 h
  GI50: 2 µM
A549; Homo sapiens, A549, 48 h
  GI50: 5.4 µM
MCF7; Homo sapiens, MCF7, 48 h
  GI50: 9.37 µM
PC-3; Homo sapiens, PC-3, 48 h
  GI50: 10.7 µM
HeLa; Homo sapiens, HeLa, 48 h
  GI50: 16.2 µM
Histone deacetylase 1
  IC50: 0.179 µM
Histone deacetylase 2 [2]
  IC50: 0.827 µM
Histone deacetylase 2 [1]
  inhibition: 72%

## CCOc1cc(NC(=O)CCCCCCC(=O)Nc2cc(-c3ccc(C)s3)ccc2N)cc2c1OCC([N+](=O)[O-])=C2
K562; Homo sapiens, K562, 48 h
  GI50: 3.11 µM
A549; Homo sapiens, A549, 48 h
  GI50: 5.83 µM
MCF7; Homo sapiens, MCF7, 48 h
  GI50: 5.33 µM
PC-3; Homo sapiens, PC-3, 48 h
  GI50: 6.36 µM
HeLa; Homo sapiens, HeLa, 48 h
  GI50: > 20 µM
Histone deacetylase 2 [1]
  inhibition: 55%

## Nc1ccccc1NC(=O)c1ccc(CNC(=O)OCc2cccnc2)cc1 [ENTINOSTAT]
K562; Homo sapiens, K562, 48 h
  GI50: 9.32 µM
A549; Homo sapiens, A549, 48 h
  GI50: 18.4 µM
MCF7; Homo sapiens, MCF7, 48 h
  GI50: 19.3 µM
PC-3; Homo sapiens, PC-3, 48 h
  GI50: 19.1 µM
HeLa; Homo sapiens, HeLa, 48 h
  GI50: 19.2 µM
Histone deacetylase 2 [1]
  inhibition: 98%

## CCOc1cc(NC(=O)CCCCCCC(=O)NCCc2ccccc2)cc2c1OCC([N+](=O)[O-])=C2
K562; Homo sapiens, K562, 48 h
  GI50: 4.12 µM
A549; Homo sapiens, A549, 48 h
  GI50: 18.2 µM
MCF7; Homo sapiens, MCF7, 48 h
  GI50: 19.1 µM
PC-3; Homo sapiens, PC-3, 48 h
  GI50: 10.9 µM
HeLa; Homo sapiens, HeLa, 48 h
  GI50: > 20 µM
Histone deacetylase 2 [1]
  inhibition: 8%

## CCOc1cc(NC(=O)CCCCNC(=O)[C@H](N)Cc2ccccc2)cc2c1OCC([N+](=O)[O-])=C2
K562; Homo sapiens, K562, 48 h
  GI50: 3.56 µM
A549; Homo sapiens, A549, 48 h
  GI50: 5.95 µM
MCF7; Homo sapiens, MCF7, 48 h
  GI50: 8.72 µM
PC-3; Homo sapiens, PC-3, 48 h
  GI50: 11.2 µM
HeLa; Homo sapiens, HeLa, 48 h
  GI50: > 20 µM
Histone deacetylase 1
  IC50: 0.742 µM
Histone deacetylase 2 [2]
  IC50: 2.91 µM
Histone deacetylase 2 [1]
  inhibition: 90%

## O=C(CCCCCCC(=O)Nc1ccccc1)NO [VORINOSTAT]
K562
  GI50: 3.66 µM
A549
  GI50: 19.4 µM
MCF7
  GI50: 17.9 µM
PC-3
  GI50: 18.8 µM
HeLa
  GI50: 19.2 µM

## CCOc1cc(NC(=O)CCCCC(=O)Nc2ccccc2N)cc2c1OCC([N+](=O)[O-])=C2
K562; Homo sapiens, K562, 48 h
  GI50: 3.68 µM
A549; Homo sapiens, A549, 48 h
  GI50: 9.63 µM
MCF7; Homo sapiens, MCF7, 48 h
  GI50: 17.3 µM
PC-3; Homo sapiens, PC-3, 48 h
  GI50: 18.9 µM
HeLa; Homo sapiens, HeLa, 48 h
  GI50: 13.1 µM
Histone deacetylase 2 [1]
  inhibition: 91%

## CCOc1cc(NC(=O)CCCCCC(=O)Nc2cc(-c3ccc(C)s3)ccc2N)cc2c1OCC([N+](=O)[O-])=C2
K562; Homo sapiens, K562, 48 h
  GI50: 2.92 µM
A549; Homo sapiens, A549, 48 h
  GI50: 5.07 µM
MCF7; Homo sapiens, MCF7, 48 h
  GI50: > 20 µM
PC-3; Homo sapiens, PC-3, 48 h
  GI50: 11.4 µM
HeLa; Homo sapiens, HeLa, 48 h
  GI50: > 20 µM
Histone deacetylase 1
  IC50: 0.366 µM
Histone deacetylase 2 [2]
  IC50: 1.79 µM
Histone deacetylase 2 [1]
  inhibition: 62%

## CCOc1cc(NC(=O)CCCCCNC(=O)Cc2ccccc2)cc2c1OCC([N+](=O)[O-])=C2
K562; Homo sapiens, K562, 48 h
  GI50: 1.53 µM
A549; Homo sapiens, A549, 48 h
  GI50: 4.8 µM
MCF7; Homo sapiens, MCF7, 48 h
  GI50: 4.17 µM
PC-3; Homo sapiens, PC-3, 48 h
  GI50: 13.2 µM
HeLa; Homo sapiens, HeLa, 48 h
  GI50: 5.8 µM
Histone deacetylase 2 [1]
  inhibition: 0%

## CCOc1cc(NC(=O)CCCCCNC(=O)[C@H](N)Cc2ccccc2)cc2c1OCC([N+](=O)[O-])=C2
Histone deacetylase 1
  IC50: 0.448 µM
Histone deacetylase 2 [2]
  IC50: 1.29 µM

## CCOc1cc(NC(=O)CCCCC(=O)Nc2cc(-c3ccccc3)ccc2N)cc2c1OCC([N+](=O)[O-])=C2
K562; Homo sapiens, K562, 48 h
  GI50: 5.27 µM
A549; Homo sapiens, A549, 48 h
  GI50: 7.46 µM
MCF7; Homo sapiens, MCF7, 48 h
  GI50: 19.9 µM
PC-3; Homo sapiens, PC-3, 48 h
  GI50: 14.6 µM
HeLa; Homo sapiens, HeLa, 48 h
  GI50: > 20 µM
Histone deacetylase 2 [1]
  inhibition: 59%

## CCOc1cc(NC(=O)CCCCCNC(=O)CCCc2ccccc2)cc2c1OCC([N+](=O)[O-])=C2
K562; Homo sapiens, K562, 48 h
  GI50: 3.32 µM
A549; Homo sapiens, A549, 48 h
  GI50: 5.23 µM
MCF7; Homo sapiens, MCF7, 48 h
  GI50: 5.96 µM
PC-3; Homo sapiens, PC-3, 48 h
  GI50: 7.17 µM
HeLa; Homo sapiens, HeLa, 48 h
  GI50: 6.74 µM
Histone deacetylase 2 [1]
  inhibition: 8%

## CCOc1cc(NC(=O)CCCCCC(=O)NCCc2ccccc2)cc2c1OCC([N+](=O)[O-])=C2
K562; Homo sapiens, K562, 48 h
  GI50: 3.47 µM
A549; Homo sapiens, A549, 48 h
  GI50: 5.32 µM
MCF7; Homo sapiens, MCF7, 48 h
  GI50: 6.12 µM
PC-3; Homo sapiens, PC-3, 48 h
  GI50: 7.09 µM
HeLa; Homo sapiens, HeLa, 48 h
  GI50: 6.08 µM
Histone deacetylase 2 [1]
  inhibition: 0%
